In ChEMBL document CHEMBL1149971, “A general approach toward the design of inhibitors of serine proteinases: inhibition of human leukocyte elastase by substituted dihydrouracils” (Bioorg Med Chem Lett, 1992):

Target: T1, Neutrophil elastase (Homo sapiens) (UniProt P08246)
T1 sequence (whole entry): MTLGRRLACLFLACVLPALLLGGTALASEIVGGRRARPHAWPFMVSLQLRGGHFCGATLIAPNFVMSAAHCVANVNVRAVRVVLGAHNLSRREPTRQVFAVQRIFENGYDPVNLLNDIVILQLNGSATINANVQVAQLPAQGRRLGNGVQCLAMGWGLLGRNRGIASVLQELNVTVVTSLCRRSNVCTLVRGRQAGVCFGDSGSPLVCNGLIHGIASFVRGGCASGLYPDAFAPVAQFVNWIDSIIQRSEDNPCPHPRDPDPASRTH
Experiment: Bimolecular rate constant for the inhibition of human leukocyte elastase

SMILES: CS(=O)(=O)ON1C(=O)NCC(Cc2ccccc2)C1=O (centres undefined)
- Bimolecular inhibition rate constant (kobs/[I]): 3310 M⁻¹ s⁻¹

SMILES: O=C1NCC(Cc2ccccc2)C(=O)N1OS(=O)(=O)/C=C/c1ccccc1 (centres undefined)
- Bimolecular inhibition rate constant (kobs/[I]): 480 M⁻¹ s⁻¹

SMILES: O=C1CC(Cc2ccccc2)NC(=O)N1OS(=O)(=O)/C=C/c1ccccc1 (centres undefined)
- Bimolecular inhibition rate constant (kobs/[I]): 1980 M⁻¹ s⁻¹

SMILES: CS(=O)(=O)ON1C(=O)CC(Cc2ccccc2)NC1=O (centres undefined)
- Bimolecular inhibition rate constant (kobs/[I]): 800 M⁻¹ s⁻¹
